Structures are written as SMILES.

Ki data for three compounds are collected here from ChEMBL document CHEMBL4033673, “Conformational control in structure-based drug design” (Bioorg Med Chem Lett, 2017).

In experiment [1] the target is T1, Mineralocorticoid receptor (Homo sapiens, UniProt P08235).
T1 sequence (P08235 whole entry): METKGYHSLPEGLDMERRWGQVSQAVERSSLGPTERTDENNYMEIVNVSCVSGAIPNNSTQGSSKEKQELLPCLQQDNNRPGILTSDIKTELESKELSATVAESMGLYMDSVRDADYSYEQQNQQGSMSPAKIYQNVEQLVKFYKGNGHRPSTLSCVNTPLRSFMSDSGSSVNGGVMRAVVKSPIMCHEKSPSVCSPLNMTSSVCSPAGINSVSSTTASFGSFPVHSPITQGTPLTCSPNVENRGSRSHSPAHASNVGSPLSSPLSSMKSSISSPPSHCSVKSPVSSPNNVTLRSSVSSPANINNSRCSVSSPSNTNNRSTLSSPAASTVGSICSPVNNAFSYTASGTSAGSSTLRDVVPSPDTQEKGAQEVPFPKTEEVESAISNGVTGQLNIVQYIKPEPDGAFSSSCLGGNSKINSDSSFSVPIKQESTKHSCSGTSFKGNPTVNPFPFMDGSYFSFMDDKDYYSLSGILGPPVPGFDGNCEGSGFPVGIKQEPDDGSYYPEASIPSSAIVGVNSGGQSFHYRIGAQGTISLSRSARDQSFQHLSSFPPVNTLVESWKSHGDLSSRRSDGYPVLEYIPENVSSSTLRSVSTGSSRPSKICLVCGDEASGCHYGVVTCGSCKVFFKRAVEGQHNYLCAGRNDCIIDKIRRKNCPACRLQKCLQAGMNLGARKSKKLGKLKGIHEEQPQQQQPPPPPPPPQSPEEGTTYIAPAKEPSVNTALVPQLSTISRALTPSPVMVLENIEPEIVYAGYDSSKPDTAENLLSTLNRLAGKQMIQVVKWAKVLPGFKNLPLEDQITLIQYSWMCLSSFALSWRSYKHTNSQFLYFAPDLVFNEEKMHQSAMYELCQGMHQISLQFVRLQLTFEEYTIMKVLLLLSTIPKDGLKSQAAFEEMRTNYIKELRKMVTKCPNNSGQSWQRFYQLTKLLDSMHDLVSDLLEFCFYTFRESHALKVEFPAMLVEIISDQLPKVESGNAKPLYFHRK
Nature of the experiment: Antagonist activity at mineralocorticoid receptor (unknown origin).

The nature of experiment [2]: Displacement of (2S)-N-(2-phenylphenyl)-1-[2-[1-(tritritiomethyl)benzimidazol-2-yl]sulfanylacetyl]pyrrolidine-2-carboxamide from human OX1 receptor Ile408-Val mutant expressed on CHO cell membrane measured after 3 hrs by TopCount method.
A further experiment addresses T2, Orexin receptor type 2 (Homo sapiens, UniProt O43614).
T2 sequence (O43614 whole entry): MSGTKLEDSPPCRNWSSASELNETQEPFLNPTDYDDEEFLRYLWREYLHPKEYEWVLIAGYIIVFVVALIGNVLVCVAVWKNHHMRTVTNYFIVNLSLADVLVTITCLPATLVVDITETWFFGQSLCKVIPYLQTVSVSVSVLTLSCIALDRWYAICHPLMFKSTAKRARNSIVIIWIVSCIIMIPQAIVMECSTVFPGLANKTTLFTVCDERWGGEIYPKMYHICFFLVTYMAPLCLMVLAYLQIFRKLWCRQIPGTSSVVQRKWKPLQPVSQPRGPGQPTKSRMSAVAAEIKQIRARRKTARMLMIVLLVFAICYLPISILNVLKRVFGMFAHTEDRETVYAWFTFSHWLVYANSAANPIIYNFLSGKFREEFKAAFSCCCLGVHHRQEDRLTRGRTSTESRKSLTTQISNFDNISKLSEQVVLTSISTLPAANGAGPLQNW
Description: Displacement of (2S)-N-(2-pyrrol-1-ylphenyl)-1-[2-[1-(tritritiomethyl)benzimidazol-2-yl]sulfanylacetyl]pyrrolidine-2-carboxamide from recombinant human OX2 receptor expressed in CHO cell membranes after 3 hrs by Topcount method.

Compound `O=C1COc2ccc(N3CCc4ccc(F)cc4CC3)cc2N1` came in with a Ki in experiment [1] of 196 nM. Regarding `Cc1ccc(-n2nccn2)c(C(=O)N2CCCC(COc3ccc(F)cn3)C2)c1` (stereo not drawn), the Ki in experiment [2] turned out to be 96 nM. Consider `Cc1ccc(-n2nccn2)c(C(=O)N2CCC[C@@H](COc3ccc(F)cn3)[C@@H]2C)c1` (relative stereo), for which, at Orexin receptor type 2, the Ki came to 0.2 nM.

A word on the Ki: it is a measure of affinity in units of concentration, obtained from inhibition or displacement.
